The subject of assay [1] is angiotensin I converting enzyme in excised guinea pig ileum. As to the kind of experiment: Inhibition of angiotensin I converting enzyme in excised guinea pig ileum (contractile activity of angiotensin I). The following applies: Krebs solution at 37°; angiotensin I 25 ng/ml. The method, then: The procedure for evaluating the inhibition of angiotensin I converting enzyme in excised guinea pig ileum is carried out as follows: varying concentrations of the compound are added to an excised guinea pig ileum bath in Krebs solution at 37°, aerated with a mixture of 95% O2 -5% CO2. After two minutes, angiotensin I (25 ng/ml) is added and the isotonic […] are measured. The concentration of representative compounds of the present invention (in micrograms/ml) which inhibit the contractile activity of angiotensin I by 50% (IC50) are shown in the following table: […]

The target of assay [2] is T1, angiotensin converting enzyme (Oryctolagus cuniculus, UniProt P12822).
T1 sequence (P12822 34-1310): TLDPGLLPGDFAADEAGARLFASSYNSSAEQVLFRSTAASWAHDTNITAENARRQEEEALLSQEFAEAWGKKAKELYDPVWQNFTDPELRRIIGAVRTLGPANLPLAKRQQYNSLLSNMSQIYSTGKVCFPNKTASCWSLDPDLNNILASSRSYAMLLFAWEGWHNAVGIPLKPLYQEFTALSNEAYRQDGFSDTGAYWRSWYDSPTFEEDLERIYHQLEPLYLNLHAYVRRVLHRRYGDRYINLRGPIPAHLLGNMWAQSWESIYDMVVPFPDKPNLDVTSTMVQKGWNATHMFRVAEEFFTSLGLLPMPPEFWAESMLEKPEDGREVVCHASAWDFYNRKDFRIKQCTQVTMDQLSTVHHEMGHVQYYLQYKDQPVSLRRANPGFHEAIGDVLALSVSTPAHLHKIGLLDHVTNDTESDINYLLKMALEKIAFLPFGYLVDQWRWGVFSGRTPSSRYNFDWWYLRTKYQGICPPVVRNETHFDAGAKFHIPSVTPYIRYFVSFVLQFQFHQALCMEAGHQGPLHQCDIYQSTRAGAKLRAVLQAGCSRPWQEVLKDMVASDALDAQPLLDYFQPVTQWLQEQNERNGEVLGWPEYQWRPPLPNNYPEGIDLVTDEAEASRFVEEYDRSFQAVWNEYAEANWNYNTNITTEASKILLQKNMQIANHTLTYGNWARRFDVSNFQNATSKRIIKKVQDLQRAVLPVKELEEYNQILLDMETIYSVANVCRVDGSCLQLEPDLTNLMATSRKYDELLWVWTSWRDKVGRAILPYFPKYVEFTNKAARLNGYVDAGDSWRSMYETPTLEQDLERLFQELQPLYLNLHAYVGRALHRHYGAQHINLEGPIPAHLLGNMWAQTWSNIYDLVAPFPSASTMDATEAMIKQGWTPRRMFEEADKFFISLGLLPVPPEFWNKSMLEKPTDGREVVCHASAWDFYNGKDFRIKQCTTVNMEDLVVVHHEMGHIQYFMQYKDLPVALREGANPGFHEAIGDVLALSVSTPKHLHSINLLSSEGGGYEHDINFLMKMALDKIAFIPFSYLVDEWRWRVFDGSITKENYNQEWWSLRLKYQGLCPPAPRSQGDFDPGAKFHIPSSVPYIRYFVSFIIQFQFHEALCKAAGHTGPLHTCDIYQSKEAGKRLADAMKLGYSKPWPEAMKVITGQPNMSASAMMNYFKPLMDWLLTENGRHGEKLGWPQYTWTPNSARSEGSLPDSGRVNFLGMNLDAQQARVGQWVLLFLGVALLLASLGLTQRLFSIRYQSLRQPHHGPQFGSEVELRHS
Description: Inhibition of isolated angiotensin-converting enzyme of rabbit lung (cleavage of hippuryl-L-histidyl-L-leucine). Type of assay: biochemical. The arrangement: isolated angiotensin converting enzyme from rabbit lungs; from tissue; host or cells: rabbit lung. The conditions noted are these: 5 mM hippuryl-L-histidyl-L-leucine; pH 8.3; 30 minutes at 37° C.; read-out: I50 (50% inhibition of angiotensin-converting enzyme) (converted). From the text:
Although conversion of angiotensin I to angiotensin II by angiotensin-converting enzyme is probably the reaction of most importance in the pathology of hypertension, the activity of the isolated enzyme is more conveniently and accurately assayed by measuring its rate of cleavage of a simpler peptide substrate, hippuryl-L-histidyl-L-leucine. For determination of I50 values (concentrations of compounds expressed in micrograms/ml producing a 50% inhibition of angiotensin-converting enzyme) various concentrations of each compound are added to 13×100 mm tubes along with the following components at the indicated final concentrations in a final volume of 0.25 ml: 100 mM potassium phosphate buffer, pH 8.3; 300 mM sodium chloride; 5 mM hippuryl-L-histidyl-L-leucine; and 5 milliunits of angiotensin-converting enzyme of rabbit lung. Controls containing no inhibitor (100% activity), and those acidified before addition of the enzyme (0% activity) are similarly prepared. All of the enzymatic reactions are initiated by addition of the enzyme component; tubes are incubated for 30 minutes at 37° C.; and reactions are terminated by addition of 0.25 ml. of 1 N HCl. The hippuric acid formed by action of angiotensin-converting enzyme on hippuryl-L-histidyl-L-leucine is extracted into ethyl acetate, evaporated to dryness, redissolved in water and quantitated from its absorbance at 228 nm. The percent inhibition by each concentration of compound is calculated by comparison with the 0% and 100% activity controls. The concentrations of representative compounds of the present invention which inhibit activity of angiotensin-converting enzyme by 50% are shown in the following table: […]

Assay [3] has as its system angiotensin I pressor response. As to the kind of experiment: Inhibition of angiotensin I pressor response in unanesthetized rats, oral. The conditions noted are these: angiotensin I 0.31 μg/kg, 2 animals. Type of assay: in vivo, rat (male, Sprague-Dawley). As for the experimental part: Representative compounds of the present invention are administered orally to unanesthetized male rats of the Sprague-Dawley strain, weighing about 200 g., followed by an injection of 0.31 μg/kg of angiotensin I. The following table indicates the degree of inhibition obtained.

For assay [4], the system named is 2-kidney Goldblatt renal hypertensive rat. As to the kind of experiment: Mean blood pressure in 2-kidney Goldblatt renal hypertensive rat, oral. Type of assay: in vivo, rat (male, CF Nelson). The following applies: second dosage day, 300 mg oral. The source says: Male rats of the CF Nelson strain are anesthetized with ether and each left renal artery is partially constricted with a silver clip (i.d. 0.22 mm). The right kidney and renal artery are left intact.

Another assay concerns normotensive rat. Description: Blood pressure in normotensive rat, oral. The assay is classed as in vivo. The conditions noted are these: same dose (300 mg) orally.
Assay [5] deals with anesthetized normotensive rats. The following applies: intravenous; cited from earlier work.
For assay [6] the following is noted: in vivo; cited from earlier work.
For assay [7], the system named is angiotensinogen and renin blood levels. The conditions noted are these: normotensive rats; cited from earlier work.

The structures appear in SMILES notation.

`C[C@H](NC(=O)CCS)C(=O)O` [Example 2, N-(3-mercaptopropanoyl)-L-alanine]: the “IC50 (inhibit the contractile activity of angiotensin I by 50%)” value in assay [1] was found to be 0.94 µg/mL. Also, the IC50 in assay [2] is 6.77 µM.
The like results for `CC(C)C[C@H](NC(=O)CCS)C(=O)O` [Example 4, N-(3-Mercaptopropanoyl)-L-leucine] were, in that order, 2.0 µg/mL and 8.21 µM.
Taken in the same sequence, the figures for `O=C(CCS)N[C@@H](Cc1ccccc1)C(=O)O` [Example 6, N-(3-Mercaptopropanoyl)-L-phenylalanine] were 0.52 µg/mL and 3.39 µM.
Take `N=C(N)NCCC[C@H](NC(=O)CCS)C(=O)O` [Example 8, N^α -(3-Mercaptopropanoyl)-L-arginine]: the “IC50 (inhibit the contractile activity of angiotensin I by 50%)” value in assay [1] amounted to 0.9 µg/mL. For the same compound, the IC50 in assay [2] is 0.648 µM.
The like results for `CN(CC(=O)O)C(=O)CCS` [Example 10, N-(3-Mercaptopropanoyl)sarcosine] were, in that order, 0.94 µg/mL and 10.2 µM.
Consider `O=C(O)CNC(=O)CCS` [Example 15, N-(3-Mercaptopropanoyl)glycine], for which the “IC50 (inhibit the contractile activity of angiotensin I by 50%)” value in assay [1] amounted to 4.5 µg/mL. For the same compound, the “% maximum inhibition of angiotensin I pressor response ± SE” value in assay [3] (10 mg/kg oral) stood at 34.2 ± 6.7%; in assay [3] (100 mg/kg oral), 61.5 ± 1.2%. Also, in assay [2], the IC50 is 12.3 µM.
Take `N=C(N)NCCC[C@H](NC(=O)C(CS)Cc1ccccc1)C(=O)O` (stereo partly drawn) [Example 34, N^α -(3-mercapto-2-benzylpropanoyl)-L-arginine]: the “IC50 (inhibit the contractile activity of angiotensin I by 50%)” value in assay [1] was found to be 4.1 µg/mL.
On to `CC(S)C(=O)NCC(=O)O` (stereo not shown) [Example 51, N-2-Mercaptopropanoylglycine], for which the “IC50 (inhibit the contractile activity of angiotensin I by 50%)” value in assay [1] came to 2.0 µg/mL. Moreover, the figures for the “% maximum inhibition of angiotensin I pressor response ± SE” value in assay [3] (10 mg/kg oral), in assay [3] (30 mg/kg oral) and in assay [3] (100 mg/kg oral) were 29.9 ± 3.1%, 52.9 ± 15.8% and 64.9 ± 12.3%, respectively. Also, the Mean blood pressure was determined as 206 mm Hg in assay [4] (Rat #9, 1 h after drug, before drug 222); 173 mm Hg in assay [4] (Rat #9, 2 h after drug, before drug 222); 157 mm Hg in assay [4] (Rat #9, 3 h after drug, before drug 222); 184 mm Hg in assay [4] (Rat #9, 4 h after drug, before drug 222); 206 mm Hg in assay [4] (Rat #9, 5 h after drug, before drug 222); 199 mm Hg in assay [4] (Rat #9, 6 h after drug, before drug 222). In addition, the Mean blood pressure in assay [4] (Rat #10, 1 h after drug, before drug 206) was 203 mm Hg; in assay [4] (Rat #10, 2 h after drug, before drug 206), 190 mm Hg; in assay [4] (Rat #10, 3 h after drug, before drug 206), 189 mm Hg; in assay [4] (Rat #10, 4 h after drug, before drug 206) it was 199 mm Hg; in assay [4] (Rat #10, 5 h after drug, before drug 206), 195 mm Hg; in assay [4] (Rat #10, 6 h after drug, before drug 206), 197 mm Hg. Further, the “effects on blood pressure” value in the assay on normotensive rat is “no significant effects on blood pressure”. Besides, the “lowering of the blood pressure” value in assay [5] was “produced lowering of the blood pressure”. Further, the “effects of blood pressure” value in assay [6] is “no noticeable effects of blood pressure”. Besides, the angiotensinogen entry in assay [7] is “increases angiotensinogen”. Moreover, in assay [7], the renin blood levels entry is reported as “lowers renin blood levels”. Besides, the IC50 in assay [2] was 15.9 µM.

The values above are taken from patent US4199512A, “Compounds for alleviating hypertension” (E. R. Squibb & Sons, Inc., priority 1978, dated 1980).
